Source: US12428408B2, “Fused heterocyclic mescaline derivatives” (Enveric Biosciences Canada Inc., priority 2022, dated 2025)

How the values were obtained:
[1] = test system: Human NT2/D1 precursor cells (NT2/D1); assay: Neuroplastogenicity assay using human model (NT2) neurons; type: cell-based; conditions: RA-treated NT2 cells, 1 μM, 48 hours, vs 0.1% DMSO
Method: The compound with formula A(XXXII) was assayed for neuroplastogenic potential using the following procedure. Human NT2/D1 precursor cells (NT2/D1) were purchased from the American Type Culture Collection (ATCC, Manassas, VA, USA). The neuronal differentiation was carried out as previously described (Roloff et al., 2015, PLOS ONE e0118536:1-14; Roloff et al., 2013, BMC Neuroscience 14:141-155) with minor modifications. First, NT2/D1 cells were seeded in T-25 suspension culture flasks (REF #690190, Greiner bio-one, Germany). Each flask contained a minimum of 5×10^6 cells in 10 ml of DMEM/F12 supplemented with 10% fetal bovine serum (FBS), 1% penicillin and streptomycin and 10 μM retinoic acid (RA medium) to start neuronal differentiation. The cells were cultured for 3 days in free floating medium. At the end of the incubation, cells were trypsinized and collected by centrifugation, mechanically dispersed, and counted. Counted cells were seeded on Poly D-Lysine (PDL) coated cover slips (12 mm; diameter round, Fisher Scientific; GG-12-PDL) containing minimum of 0.1×10^5 cells in culture medium without RA. The next day, culture medium was replaced with RA medium containing 2% of FBS. These cells were cultured for 5 days, with a change of RA medium two days later. For the neuronal outgrowth assay, after cells had successfully attached and established under coverslips, the RA medium was replaced with one of the following: (1) test molecules at one of two different concentrations (10 μm or 1 μm); (2) positive control ROCK inhibitor Y-27632, (Dihydrochloride, Sigma-Aldrich); (2) positive control ibuprofen (14883-1G; Sigma-Aldrich), or (4) negative control culture medium containing 2% of FBS. Cells under these conditions were incubated for 48 hours under standard conditions (37° C., 5% CO2) in an incubator prior to the immunofluorescent assay.
For the immunofluorescent assay, the treated cells housed under coverslips were collected after 48 hours of drug treatments. These coverslips washed with calcium chloride-free and magnesium chloride-free phosphate buffered saline (PBS) pH 7.4 (Gibco, #70011-044) and fixed using paraformaldehyde (PFA) 4% in PBS (#J61899, thermoscientific) for 15 min at room temperature (RT) and washed three times with 0.01% of Triton-X100 in PBS (PBST) to remove remaining PFA and to permeabilize the cells. Unspecific binding sites were blocked with 5% Bovine Serum Albumin (BSA) solution (#9048-46-8, Millipore) in PBST for 60 minutes at RT. Rabbit monoclonal antibody β-III-Tubulin (1:5,000, ab52623, Abcam) was applied overnight (O/N) at 4° C. […] Finally, the immunofluorescence images were detected by using Olympus VS110 slide scanner microscope. […]

5-HT2A receptor = 5-HT2A receptor (Homo sapiens, UniProt P28223); assay: 5-HT2A receptor radioligand competition assay (SPA)
5-HT2A receptor, sequence (P28223 whole entry): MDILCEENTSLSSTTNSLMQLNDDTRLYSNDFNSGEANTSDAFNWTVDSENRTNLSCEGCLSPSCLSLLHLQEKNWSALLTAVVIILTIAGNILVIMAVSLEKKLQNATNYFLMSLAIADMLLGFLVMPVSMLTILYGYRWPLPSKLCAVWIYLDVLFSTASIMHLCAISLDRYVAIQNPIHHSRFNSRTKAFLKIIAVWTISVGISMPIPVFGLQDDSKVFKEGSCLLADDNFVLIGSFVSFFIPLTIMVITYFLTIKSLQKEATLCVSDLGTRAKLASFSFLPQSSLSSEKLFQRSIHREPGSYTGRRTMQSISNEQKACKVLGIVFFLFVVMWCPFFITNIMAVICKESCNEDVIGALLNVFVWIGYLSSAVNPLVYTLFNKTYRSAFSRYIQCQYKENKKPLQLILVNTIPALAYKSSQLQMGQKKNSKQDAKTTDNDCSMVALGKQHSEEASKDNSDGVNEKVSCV

5-HT1A receptor = molecular target: T1, 5-HT1A receptor (Homo sapiens, UniProt P08908); assay: 5-HT1A receptor radioligand competition assay (SPA); type: binding
T1 construct: purchased Perkin Elmer 6110501400UA
T1 sequence (P08908 1-422): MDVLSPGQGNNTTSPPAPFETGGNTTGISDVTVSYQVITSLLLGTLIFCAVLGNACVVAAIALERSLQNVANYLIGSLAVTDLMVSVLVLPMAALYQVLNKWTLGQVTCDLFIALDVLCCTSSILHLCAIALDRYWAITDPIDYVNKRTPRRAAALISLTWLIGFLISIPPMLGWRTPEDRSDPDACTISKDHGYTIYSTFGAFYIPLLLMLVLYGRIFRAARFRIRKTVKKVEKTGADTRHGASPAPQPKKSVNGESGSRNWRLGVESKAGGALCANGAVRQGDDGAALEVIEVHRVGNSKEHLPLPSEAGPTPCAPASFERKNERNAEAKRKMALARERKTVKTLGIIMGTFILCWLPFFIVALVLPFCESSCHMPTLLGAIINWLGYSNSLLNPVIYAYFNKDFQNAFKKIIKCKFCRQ

CC(C)Cc1ccc(C(C)C(=O)O)cc1 (stereo not shown) [ibuprofen, reference compound]
neurite outgrowth (β-III-tubulin immunofluorescence) compared to negative control [1]: strong signs of neurite outgrowth

CC(Cc1ccc2c(c1)OCO2)N(C)CCc1c[nH]c2ccccc12 (stereo not shown) [A(XXXII)]
Ki (5-HT2A receptor): 0.465 µM | neurite outgrowth (β-III-tubulin immunofluorescence) compared to negative control [1]: strong signs of neurite outgrowth | Ki (5-HT1A receptor): 0.465 µM
